According to patent US10365275B2, “Immunologically active polypeptide” (Institute of Arthritis Research, LLC, priority 2013, dated 2019):

What was measured:
Assay type in all cases: cell-based
[1] = test system: Staphylococcus aureus; test: S. aureus growth (CFU) with human peripheral blood white cells
Protocol: (§1) Staphylococcus aureus bacteria were incubated with human peripheral blood white cells (WBC) in the absence or presence of PeptideX2 (0, 10, and 100 μg/ml), and the effects on S. aureus growth were assessed by serial dilutions, microbiological plating and determination by counting colony forming units (CFU) in culture samples withdrawn after incubation times of 0, 1.5 and 3 hours. The WBC-to-Staph ratio was 100:1, using WBC at 4×10^6/ml and Staph 4×10^4 CFU/ml.

[2] = test system: human peripheral blood white cells (WBC); test: TNFα production by WBC during short-term incubation with S. aureus (ELISA); conditions: for TNFα concentration: 3-hour culture
Protocol: as §1, with “CFU/ml. Supernatant fluids from the same experimental cultures were also tested for TNFα production by WBC during the short-term incubations with S. aureus. […] In this three-hour timeframe, however, the presence of PeptideX2 at these concentrations had no effect on WBC bacteriocidal activity against S. aureus.” for “CFU/ml.”

[3] = test system: E. coli; test: E. coli growth (CFU) with human peripheral blood leukocytes; conditions: E. coli with WBCs with PeptideX2, 10 hours
Protocol: Human peripheral blood leukocytes (WBCs) were obtained from healthy donors with informed consent. Three test groups were inoculated with E. coli and incubated for 10 hours. The three groups were E. coli with serum alone, E. coli with WBCs, and E. coli with WBCs with PeptideX2. Samples were taken at 0, 2, 4, 6 and 10 hours and plated for colony forming units (CFUs). […] In a separate but similar experiment, nine test groups (E. coli with serum alone, E. coli with WBCs, and E. coli with WBCs with PeptideX2 at each of seven indicated concentrations, see FIG. 12) were incubated over a time course of three hours, with quantification of bacterial CFU performed at times 0, 1.5 and 3 hours (FIG. 12).

[4] = test system: peripheral blood cells; test: Cytokine production by human peripheral blood cells (MSD panel)
Protocol: In order to examine the biological activity of IgX, cytokine production from human peripheral whole blood samples incubated with IgX was measured. Peripheral whole blood samples from three different donors (#66, 67, and 85) were obtained with appropriate informed consent and incubated with concentrations of IgX ranging from 0 to 200 ug/ml.
Protein A purified IgX was prepared from placental sample BC, brought to 0.05 M phosphate, 0.15 M NaCl buffer, pH 7.4, treated with an endotoxin affinity column (ActiClean Etox™ from Sterogene, Carlsbad, Calif.) according to the supplier's instructions, and then sent to IBT Bioservices (Gaithersburg, Md.) for human peripheral blood testing. […] All peripheral blood cells were suspended in RPMI-1640 media. Various concentrations of IgX were incubated with peripheral blood cells from donor D66 for 18 hours, and then the samples were stimulated with 1 ug/ml of PHA, 50 ng/ml of LPS, or 10 ng/ml of IFNγ (200 U/ml) for four hours. Samples of culture supernatant fluids were tested in duplicate for the presence of IL-2, IL-4, IL-6, IL-10, IL-12, and TNFα using a Meso Scale Discovery (MSD, Gaithersburg, Md.) panel.
PeptideX1 and PeptideX2 were incubated with peripheral blood cells from donor D67 as described above and tested in duplicate for IL-6 activity. […]

[5] = target: T1, human TLR2 (Homo sapiens, UniProt O60603); test: NF-κB-driven SEAP reporter assay in TLR-transfected HEK293 cells
T1 construct: host or cells: HEK293
Protocol: (§2) PeptideX2 (200 μg/mL) was tested for its effects on human TLR-driven NF-κB activation in HEK293 cell lines transfected with human TLR2, 3, 4, 5, 7, 8 or 9 (InvivoGen, San Diego, Calif.). HEK293 cells (50,000 to 75,000 cells/well) expressing the indicated TLR were plated in wells of a 96-well plate (200 μl total volume) containing either with no additions, PeptideX2 (in 20 μl buffer), or buffer only (20 μl) as a vehicle control. All cells contained a reporter construct having coding sequence for Secreted Embryonic Alkaline Phosphatase (SEAP) under the control of a promoter inducible by the transcription of NF-κB, and were incubated in media containing a detectable SEAP expression indicator (InvivoGen, San Diego, Calif.). After 16-20 hours incubation at 37° C., the optical density of culture supernatants was read at 650 nm on a Molecular Devices SpectraMax™ 340PC absorbance detector.
(§3) The relative potency of PeptideX2 induction of human TLR-mediated NF-κB activation was compared to the effects of known PAMP ligands that have activity as agonists for each of the human TLRs TLR2, TLR3, TLR4, TLR5, TLR7, TLR8 and TLR9, using the NF-κB-driven SEAP reporter assay (InvivoGen, San Diego, Calif.). The known TLR agonists were as follows: for TLR2, heat killed Listeria monocytogenes (HKLM) at 10^8 cells/ml; for TLR3, poly(I:C) at 1 ug/ml; for TLR4, E. coli K12 LPS at 100 ng/ml; for TLR5, S. typhimurium flagellin at 100 ng/ml; for TLR7, CL097 at 1 ug/ml; for TLR8, CL075 at 1 ug/ml; for TLR9, CpG ODN 2006 at 100 ng/ml.

[6] = target: T2, human TLR4 (Homo sapiens, UniProt O00206); test: as above; conditions: PeptideX2 200 μg/mL, 16-20 hours
T2 construct: host or cells: HEK293
Protocol: as §2, §3

[7] = target: T3, murine TLR2 (Mus musculus, UniProt Q9QUN7); test: as above; conditions: PeptideX2 200 μg/mL
T3 construct: host or cells: HEK293
Protocol: as §2
(§4) PeptideX2 (200 μg/mL) was also tested for its effects on murine TLR-driven NE-κB activation in HEK293 cell lines transfected with murine TLR2, 3, 4, 5, 7, 8 or 9 (InvivoGen, San Diego, Calif.) essentially as described above.

[8] = target: T4, murine TLR4 (Mus musculus, UniProt Q9QUK6); test: as above; conditions: PeptideX2 200 μg/mL
T4 construct: host or cells: HEK293
T4 sequence (Q9QUK6 26-835): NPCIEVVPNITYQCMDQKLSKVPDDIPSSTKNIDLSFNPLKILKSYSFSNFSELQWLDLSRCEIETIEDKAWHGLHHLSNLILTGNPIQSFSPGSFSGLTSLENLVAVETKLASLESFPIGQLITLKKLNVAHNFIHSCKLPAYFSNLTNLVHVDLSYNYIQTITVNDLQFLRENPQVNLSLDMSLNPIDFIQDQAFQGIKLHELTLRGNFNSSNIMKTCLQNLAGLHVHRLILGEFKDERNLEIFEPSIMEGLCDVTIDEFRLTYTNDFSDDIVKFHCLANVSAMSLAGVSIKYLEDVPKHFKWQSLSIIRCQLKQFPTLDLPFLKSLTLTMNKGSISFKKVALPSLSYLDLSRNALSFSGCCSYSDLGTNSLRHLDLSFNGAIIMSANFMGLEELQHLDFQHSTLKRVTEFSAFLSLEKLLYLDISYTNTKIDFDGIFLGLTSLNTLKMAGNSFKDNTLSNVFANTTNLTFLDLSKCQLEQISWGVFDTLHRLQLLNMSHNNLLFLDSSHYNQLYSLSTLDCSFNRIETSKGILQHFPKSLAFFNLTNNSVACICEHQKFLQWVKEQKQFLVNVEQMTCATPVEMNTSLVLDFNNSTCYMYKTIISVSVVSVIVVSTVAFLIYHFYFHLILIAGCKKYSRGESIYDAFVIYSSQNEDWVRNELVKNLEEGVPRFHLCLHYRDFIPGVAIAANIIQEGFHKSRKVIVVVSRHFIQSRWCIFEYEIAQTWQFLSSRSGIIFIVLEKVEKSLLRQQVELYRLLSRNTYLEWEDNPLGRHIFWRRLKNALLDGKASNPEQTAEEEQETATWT
T4 sequence (Q9JHF9 19-160 partner): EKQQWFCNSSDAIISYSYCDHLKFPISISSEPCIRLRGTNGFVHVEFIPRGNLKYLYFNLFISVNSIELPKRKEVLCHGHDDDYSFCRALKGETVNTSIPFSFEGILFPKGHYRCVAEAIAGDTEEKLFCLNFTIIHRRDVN
Protocol: as §2, §4

[9] = test system: murine TLR3, 5, 7, 8 or 9; test: as above; conditions: PeptideX2 200 μg/mL
Protocol: as §2, §4

T1 sequence (O60603 21-784): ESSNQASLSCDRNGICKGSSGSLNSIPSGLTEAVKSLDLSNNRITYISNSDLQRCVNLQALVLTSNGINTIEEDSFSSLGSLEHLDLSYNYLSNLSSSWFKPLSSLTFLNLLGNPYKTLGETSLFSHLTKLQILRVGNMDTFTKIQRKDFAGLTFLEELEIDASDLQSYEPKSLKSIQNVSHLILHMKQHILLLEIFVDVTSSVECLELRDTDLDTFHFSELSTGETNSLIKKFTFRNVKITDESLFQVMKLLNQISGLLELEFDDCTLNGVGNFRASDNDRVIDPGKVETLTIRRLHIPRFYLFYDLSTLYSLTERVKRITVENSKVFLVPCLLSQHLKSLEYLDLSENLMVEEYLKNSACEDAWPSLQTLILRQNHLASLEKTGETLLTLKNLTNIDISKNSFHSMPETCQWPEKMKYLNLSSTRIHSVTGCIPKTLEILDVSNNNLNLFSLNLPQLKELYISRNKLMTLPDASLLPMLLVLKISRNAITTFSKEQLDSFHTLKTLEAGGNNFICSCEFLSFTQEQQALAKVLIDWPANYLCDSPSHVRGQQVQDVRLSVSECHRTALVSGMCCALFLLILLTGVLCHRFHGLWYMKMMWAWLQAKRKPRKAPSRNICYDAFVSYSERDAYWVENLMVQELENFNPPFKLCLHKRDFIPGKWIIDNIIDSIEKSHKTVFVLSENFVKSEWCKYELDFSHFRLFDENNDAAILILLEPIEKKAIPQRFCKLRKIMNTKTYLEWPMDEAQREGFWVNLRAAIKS
T2 sequence (O00206 24-839): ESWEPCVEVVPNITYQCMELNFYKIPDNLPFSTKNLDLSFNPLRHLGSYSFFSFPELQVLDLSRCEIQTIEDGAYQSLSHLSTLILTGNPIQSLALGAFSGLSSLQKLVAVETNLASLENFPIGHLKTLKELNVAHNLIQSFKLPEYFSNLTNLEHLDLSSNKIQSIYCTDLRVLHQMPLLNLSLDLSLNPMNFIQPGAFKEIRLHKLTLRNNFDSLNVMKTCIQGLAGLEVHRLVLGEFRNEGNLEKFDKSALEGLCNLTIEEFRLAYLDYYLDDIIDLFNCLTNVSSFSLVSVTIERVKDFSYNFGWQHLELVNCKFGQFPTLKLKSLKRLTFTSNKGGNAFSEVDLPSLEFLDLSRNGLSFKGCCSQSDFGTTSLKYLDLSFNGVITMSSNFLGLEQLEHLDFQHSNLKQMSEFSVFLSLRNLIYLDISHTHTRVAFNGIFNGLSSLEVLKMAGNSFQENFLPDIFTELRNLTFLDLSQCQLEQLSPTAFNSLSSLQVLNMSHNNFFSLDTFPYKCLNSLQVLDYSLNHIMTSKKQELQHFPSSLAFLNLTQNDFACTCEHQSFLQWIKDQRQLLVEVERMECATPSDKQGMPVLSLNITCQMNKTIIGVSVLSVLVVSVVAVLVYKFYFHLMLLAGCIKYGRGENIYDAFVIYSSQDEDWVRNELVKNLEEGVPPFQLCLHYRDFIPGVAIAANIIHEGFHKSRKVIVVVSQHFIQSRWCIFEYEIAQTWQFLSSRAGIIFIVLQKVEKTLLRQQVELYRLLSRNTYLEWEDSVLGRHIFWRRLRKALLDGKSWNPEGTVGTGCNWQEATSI
T2 sequence (Q9Y6Y9 17-160 partner limits assumed): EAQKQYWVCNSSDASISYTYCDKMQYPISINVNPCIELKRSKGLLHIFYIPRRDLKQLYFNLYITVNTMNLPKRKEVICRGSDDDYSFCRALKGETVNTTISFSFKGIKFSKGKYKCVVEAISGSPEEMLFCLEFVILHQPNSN
T3 sequence (Q9QUN7 25-784): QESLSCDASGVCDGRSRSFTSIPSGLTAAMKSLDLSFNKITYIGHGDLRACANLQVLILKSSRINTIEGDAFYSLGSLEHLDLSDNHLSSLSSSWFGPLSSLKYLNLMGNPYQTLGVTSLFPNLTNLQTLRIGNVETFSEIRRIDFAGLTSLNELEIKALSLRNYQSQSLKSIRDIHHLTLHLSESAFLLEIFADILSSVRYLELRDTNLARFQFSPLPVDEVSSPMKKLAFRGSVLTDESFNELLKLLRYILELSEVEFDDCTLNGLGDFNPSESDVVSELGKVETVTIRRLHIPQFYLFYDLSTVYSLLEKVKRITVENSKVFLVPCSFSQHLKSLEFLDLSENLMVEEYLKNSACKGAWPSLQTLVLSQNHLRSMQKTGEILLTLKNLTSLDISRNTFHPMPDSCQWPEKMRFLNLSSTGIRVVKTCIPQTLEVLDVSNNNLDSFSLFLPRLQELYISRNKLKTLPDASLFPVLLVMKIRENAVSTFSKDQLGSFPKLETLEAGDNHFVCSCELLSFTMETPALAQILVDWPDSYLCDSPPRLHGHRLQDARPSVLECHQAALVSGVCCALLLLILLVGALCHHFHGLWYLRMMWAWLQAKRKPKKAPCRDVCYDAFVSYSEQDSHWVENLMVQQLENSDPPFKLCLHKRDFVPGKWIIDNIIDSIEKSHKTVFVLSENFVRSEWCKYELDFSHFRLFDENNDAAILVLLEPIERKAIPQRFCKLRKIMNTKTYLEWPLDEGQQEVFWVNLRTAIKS

KSIAYLQMNSLK (Peptide fragment) [PeptideX2, dodecapeptide derived from the heavy chain hypervariable region of IgX, residues 97-108 of AAH90938.1]
effect on WBC bacteriocidal activity against S. aureus ([1]; PeptideX2 10 and 100 ug/ml, three-hour timeframe): no effect
S. aureus growth ([1]; WBC present, up to three hours, presence or absence of PeptideX2 (0, 10, 100 μg/ml)): no S. aureus growth was detected
reduction in TNFα production ([2]; 100 ug/ml PeptideX2, 3-hour timepoint): 65%
TNFα concentration ([2]; WBC plus PeptideX2 at 10 ug/ml): 160 pg/mL
TNFα concentration ([2]; WBC plus PeptideX2 at 100 ug/ml): 76 pg/mL
TNFα concentration ([2]; serum plus PeptideX2 at 100 ug/ml (no WBC)): 0.05 pg/mL
reduction in TNFα production ([2]; PeptideX2 at 10 ug/ml, 3-hour timepoint): 27%
E. coli CFUs [3]: rapid rise in CFUs
IL-6 production ([4]; cells from donor #67, compared to peptideX1): significantly greater IL-6 production compared to peptideX1
IL-6 production ([4]; cells from donor #85, PeptideX2 0, 10, 100 or 200 ug/ml): enhanced production
TLR2-mediated response as level of the response to HKLM ([5]; PeptideX2 200 μg/mL vs HKLM at 10^8 cells/ml): 14%
NF-κB activation via TLR2 ([5]; PeptideX2 200 μg/mL, 16-20 hours): activation of NF-κB via TLR2 and TLR4
NF-κB activation via TLR4 [6]: activation of NF-κB via TLR2 and TLR4
NF-κB-driven SEAP expression through murine TLR2 [7]: induction
NF-κB-driven SEAP expression through murine TLR4 [8]: induction
potency via murine TLR4 relative to murine TLR2 [8]: greater potency in activating via murine TLR4 relative to murine TLR2
NF-κB-driven SEAP expression through the other murine TLRs tested [9]: not through the other TLRs tested
